Source: US9132141B2 (priority 2012, dated 2015)

Key:
PR8 [1] = test: Oxidized phospholipids in lungs of PR8-infected mice (MALDI-IMS); type: in vivo, mouse; conditions: PR8-infected mice with or without treatment
Excerpt: To assess the effect of eritoran on production of oxidized phospholipids during infection, MALDI-IMS was used to identify alterations in the lipid composition of mouse lungs after PR8, with or without eritoran treatment. […] (FIG. 10a). Results are representative of 4 replicate experiments. The structures of abundant phosphatidylcholine (PC) and predicted oxidized phosphatidylcholine (OxPC) molecules and molecular weights: 1-palmitoyl-2-linoleoyl PC (PLPC) m/z 757.6, 1-palmitoyl-2-arachadonyl PC (PAPC) m/z 782.1, and predicted structures of oxidized PC molecules and molecular weight, 1-palmitoyl-2-(9-oxo)nonanoyl PC (PONPC) m/z 649.4, (PEIPC) 1-palmitoyl-2-(5,6-epoxyisoprostance E2 oyl) PC m/z 828.1 are shown. (FIG. 10b).

PR8 [2] = test: Survival of PR8-infected IFNβ−/− mice; type: in vivo; conditions: ~7500 TCID50 PR8; treated 2 days post-infection for 5 successive days
Excerpt: Wild-type and IFNβ^−/− mice were infected with ˜7500 TCID50 PR8 and were left either untreated (circles) or treated with eritoran 2 days post-infection, for 5 successive days (squares). (FIG. 11). Data represent the combined results of 2 separate experiments (6 mice per treatment per experiment; WT: untreated vs. eritoran treatment (p<0.0013); IFNβ^−/−: untreated v. eritoran treatment (p=ns).

PR8 [3] = test: Lung viral titers in PR8-infected mice; type: in vivo; conditions: ~7500 TCID50 PR8, 200 μg/mouse i.v. starting on day 2
PR8 [4] = test: Influenza-induced lung pathology in PR8-infected mice (H&E histology); type: in vivo; conditions: ~7500 TCID50 PR8; 200 μg/mouse i.v. starting on day 2; day 7 post-infection
Protocol: Mice were infected i.n. with 50 μl of PR8 (˜7500 TCID50/mouse). Mice were then injected i.v. with 100 μl of eritoran (200 μg/mouse) starting on day 2 post-infection. Mice were then sacrificed on day 7 post-infection (day […] post-eritoran treatment) and lungs harvested for lung pathology (4 mice/treatment group). Murine lungs were inflated and perfused and fixed with 4% PFA. Fixed sections (8 μm) of paraffin-embedded lungs were stained with hematoxylin and eosin (H&E). Slides were randomized, read blindly, and examined for tissue damage, necrosis, apoptosis, and proinflammatory cellular infiltration. […] Pulse oximetry measurements were performed to confirm these observations.

PR8 [5] = test: Influenza-induced cytokine and interferon mRNA in lungs of PR8-infected mice (real-time PCR); type: in vivo; conditions: 200 μg/mouse i.v. starting on day 2
TLR4 = target: T1, TLR4 (Mus musculus, UniProt Q9JHF9+Q9QUK6); test: OxPAPC-induced IL-6 gene expression in peritoneal macrophages; type: cell-based; conditions: pretreatment 10 ng/mL for 1 hour, OxPAPC 20 μg/mL
T1 construct: endogenous in cells; host or cells: peritoneal macrophages from wild-type C57BL/6J mice
T1 sequence (Q9QUK6 26-835): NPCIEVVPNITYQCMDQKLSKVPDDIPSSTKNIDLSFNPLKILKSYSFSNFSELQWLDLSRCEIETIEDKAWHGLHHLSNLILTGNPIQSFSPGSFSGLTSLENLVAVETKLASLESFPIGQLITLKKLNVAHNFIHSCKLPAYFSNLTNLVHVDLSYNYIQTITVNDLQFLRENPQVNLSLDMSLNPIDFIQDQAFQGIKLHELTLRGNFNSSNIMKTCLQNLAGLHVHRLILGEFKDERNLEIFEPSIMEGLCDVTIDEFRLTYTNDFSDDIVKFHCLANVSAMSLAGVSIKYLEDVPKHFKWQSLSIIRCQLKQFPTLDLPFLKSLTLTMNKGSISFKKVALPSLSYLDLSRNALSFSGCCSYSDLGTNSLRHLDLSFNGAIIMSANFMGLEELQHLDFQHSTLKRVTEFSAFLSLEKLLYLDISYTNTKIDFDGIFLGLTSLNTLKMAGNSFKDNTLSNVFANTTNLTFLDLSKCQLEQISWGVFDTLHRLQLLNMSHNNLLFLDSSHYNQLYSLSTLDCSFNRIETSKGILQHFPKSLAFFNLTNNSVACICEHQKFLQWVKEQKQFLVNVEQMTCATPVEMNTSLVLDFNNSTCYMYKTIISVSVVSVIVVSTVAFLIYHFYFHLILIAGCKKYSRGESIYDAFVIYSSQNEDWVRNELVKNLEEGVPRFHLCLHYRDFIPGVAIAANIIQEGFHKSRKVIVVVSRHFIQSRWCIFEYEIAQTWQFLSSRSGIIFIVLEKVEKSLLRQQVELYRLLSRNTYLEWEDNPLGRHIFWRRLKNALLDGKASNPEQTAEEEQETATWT
T1 sequence (Q9JHF9 19-160): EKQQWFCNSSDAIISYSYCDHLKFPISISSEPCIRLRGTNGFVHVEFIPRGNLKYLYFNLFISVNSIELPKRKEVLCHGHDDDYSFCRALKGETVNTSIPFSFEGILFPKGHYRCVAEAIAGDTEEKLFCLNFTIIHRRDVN
Protocol: Wild-type C57BL/6J, TLR4^−/−, and TLR2^−/− peritoneal macrophages were pretreated with eritoran (10 ng/mL) for 1 hour and then treated with medium alone, LPS (20 ng/mL), P3C (300 ng/mL), or OxPAPC (20 μg/mL) and RNA expression was measured. Commercially obtained OxPAPC activated IL-6 gene expression in WT and TLR2^−/− mouse peritoneal macrophages, but not in cells from TLR4^−/− mice (FIG. 9). […] Data are means+/−s.e.m. from 1 experiment with samples done in triplicate (*p<0.001, #p<0.05).

influenza = test: Survival of influenza-infected TLR2−/− and CD14−/− mice; type: in vivo; conditions: treated 2 days post-infection for 5 successive days
Excerpt: Normal mice (WT), TLR4^−/−, TLR2^−/−, and CD14^−/− were infected with influenza and then were untreated (closed circles) or treated with eritoran (open circles) 2 days post-infection, for 5 successive days. (FIG. 13a). […] WT data were combined from 5 separate experiments (5-6 mice per treatment per experiment), TLR4^−/− data were combined from 3 separate experiments (5-6 mice per treatment per experiment), CD14^−/− data were combined from 2 separate experiments (4-5 mice per treatment per experiment). WT: untreated vs eritoran (p, 0.0001); TLR4^−/−: untreated vs. eritoran (p=ns); CD14^−/−: untreated vs. eritoran (p=ns); TLR2^−/−: untreated vs. eritoran (p=ns).

PR8 [6] = test: Influenza-induced serum liver enzyme levels (ALT, AST) in PR8-infected mice; type: in vivo, C57BL/6J WT mice; conditions: 200 μg/mouse i.v. starting on day 2; serum day 7
Protocol: Mice infected i.n. with 50 μl of PR8 (˜7500 TCID50/mouse). Mice injected i.v. with 100 μl of eritoran (200 μg/mouse) starting on day 2 post-infection. Serum was collected on day 7 from C57BL/6J WT mice that were either mock-infected with saline or infected with PR8 and were either left untreated or were treated with eritoran starting on day 2 post-infection. Alanine aminotransaminase (ALT) and aspartate aminotransaminase (AST) were measured (Siemens Healthcare Diagnostics, Ltd.). […] Data represent 2 separate experiments with 4 mice per treatment per experiment.

[7] = test system: A/California/07/2009, H1N1; test: Direct antiviral effect: virus titration in MDCK cells

Structure (SMILES): CCCCCC/C=C\CCCCCCCCCC(=O)N[C@H]1[C@H](OC[C@H]2O[C@H](OP(=O)(O)O)[C@H](NC(=O)CC(=O)CCCCCCCCCCC)[C@@H](OCCCCCCCCCC)[C@@H]2O)O[C@H](COC)[C@@H](OP(=O)(O)O)[C@@H]1OCC[C@@H](CCCCCCC)OC [eritoran, α-D-Glucopyranose, 3-O-decyl-2-deoxy-6-O-[2-deoxy-3-O-[(3R)-3-methoxydecyl)-6-O-methyl-2-[[(-11Z)-1-oxo-11-octadecenyl)amino]-4-O-phosphono-β-D-glucopyranosyl]-2-[(1,3-dioxotetradecyl)amino]-1-(dihydrogen phosphate)]
- oxidation products of phospholipids in lung (PR8 [1]): detected in greater abundance and intensity in PR8-infected versus mice that were treated with eritoran
- protection (survival) in IFNβ−/− mice (PR8 [2]): does not induce protection
- lung viral titers on day 7 (PR8 [3]; day 7 post-infection): further decreased
- lung viral titers (PR8 [3]; lungs harvested days 2, 4, 6): statistically significant decrease in lung viral titers
- lung sections nearly normal (PR8 [4]): ~80 % of lung sections
- lung sections showing inflammatory infiltrates (PR8 [4]): ~20 % of lung sections
- cytokine gene expression in lung (PR8 [5]; days 2, 4, 6 post-infection): significantly reduced cytokine gene expression at each time point
- interferon production (mRNA) in lung (PR8 [5]; depends on interferon species): variable levels of interferon production compared to control mice
- TLR4-dependent cell activation by OxPAPC (IL-6 gene expression) (TLR4): substantially inhibited
- protection (survival) in TLR2−/− or CD14−/− mice (influenza): ineffective at inducing protection
- liver enzyme levels (ALT, AST) in serum (PR8 [6]): lower levels of liver enzymes post-infection
- Titer ([7]; Experiment 1, 10 ng/mL applied 1 hour prior to virus): 1.0 × 10^6 TCID50/ml
- Titer ([7]; Experiment 1, 10 ng/mL applied at the same time as virus): 3.1 × 10^6 TCID50/ml
- Titer ([7]; Experiment 2, 10 ng/mL applied 1 hour prior to virus): 3.4 × 10^5 TCID50/ml
- Titer ([7]; Experiment 2, 10 ng/mL applied at the same time as virus): 6.3 × 10^6 TCID50/ml
